Reference: PMC7450630 (ACS Omega, 2020)

Target: PD-L1 (Homo sapiens, UniProt Q9NZQ7)
Assay: HTRF PD-1/PD-L1 binding assay

Chain of PD-L1 (Q15116 25-288): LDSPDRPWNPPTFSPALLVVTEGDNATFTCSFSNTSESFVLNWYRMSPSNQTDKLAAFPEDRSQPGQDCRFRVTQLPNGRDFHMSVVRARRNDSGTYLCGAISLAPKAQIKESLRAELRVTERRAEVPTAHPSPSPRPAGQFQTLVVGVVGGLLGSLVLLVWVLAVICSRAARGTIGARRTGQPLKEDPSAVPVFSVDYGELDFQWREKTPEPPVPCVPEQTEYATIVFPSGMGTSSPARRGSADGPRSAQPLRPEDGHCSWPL
Chain of PD-L1 (Q9NZQ7 19-290): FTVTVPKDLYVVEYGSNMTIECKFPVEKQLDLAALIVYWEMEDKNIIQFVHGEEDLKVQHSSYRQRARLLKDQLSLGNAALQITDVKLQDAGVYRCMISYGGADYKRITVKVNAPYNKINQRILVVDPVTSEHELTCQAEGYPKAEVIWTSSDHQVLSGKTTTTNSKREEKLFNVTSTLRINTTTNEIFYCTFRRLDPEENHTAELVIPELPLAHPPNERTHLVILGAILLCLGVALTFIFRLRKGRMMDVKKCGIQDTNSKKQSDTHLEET

IC50	Compound
14.1 µM	Cc1c(COc2ccc(CN3CCN(C)CC3)c(OCc3cn(-c4cccc(C#N)c4)nn3)c2)cccc1-c1ccccc1 [8a, 3-(4-((5-((2-Methylbiphenyl-3-yl)methoxy)-2-((4-methylpiperazin-1yl)methyl)phenoxy)methyl)-1H-1,2,3-triazol-1-yl)benzonitrile]
8.52 µM	Cc1c(COc2ccc(CN3CCNCC3)c(OCc3cn(-c4cccc(C#N)c4)nn3)c2)cccc1-c1ccccc1 [compound 7, 3-(4-((5-((2-Methylbiphenyl-3-yl)methoxy)-2-(piperazin-1-ylmethyl)phenoxy)methyl)-1H-1,2,3-triazol-1-yl)benzonitrile]
